Measurements published in patent US9110051B2, “Pharmacologic method of lowering cholesterol production” (The University of Chicago, priority 2004, dated 2015).

Experiments:
Format in all cases: cell-based
human red blood cells = assay: Screen using red blood cell lysis by amphotericin B; conditions: for effect on amphotericin B lysis of red cells (activity of membrane cholesterol): cholesterol lowered with cyclodextrin, turbidity or by eye, FIGS. 1 and 2; for red blood cell lysis caused by amphotericin B (visual screen): cholesterol-modified cells, octanol 0.2 μmol/well or lysophosphatidylcholine 1 μg/well, amphotericin B 20 μg/well, 1 h, room temperature
Method: Human red blood cells were either freshly drawn or taken from an outdated blood bank source and then washed and suspended in physiological buffer. The cholesterol content of washed human red blood cells was varied with methyl-β-cyclodextrin/methyl-β-cyclodextrin-cholesterol complexes. The cells were distributed into a 96-well plate and incubated for a few minutes with saline (O), 0.2 μmol/well octanol (V) or 1 μg/well lysophosphatidylcholine (□). Amphotericin B (20 μg/well) was added and the plate incubated for 1 hour at room temperature. […] In FIG. 1, turbidity (signifying intact cells) was determined in a plate-reading photometer as optical density (OD) at 500 nm; loss of OD signifies lysis. In FIG. 1, results are plotted versus total human red blood cell cholesterol, assessed with Amplex™ Red, Molecular Probes, Eugene, Oreg. The cholesterol content of unmodified red blood cells was 0.55 μg/μl cells, close to the threshold of the control curve.
Cells with modified cholesterol were placed in the conical wells of a 96-well plate, briefly pre-incubated with the two test compounds, and then treated with amphotericin B (20 μg/well) for one hour at room temperature. The plate was photographed after the cells settled. Row A: saline control. Cells depleted of cholesterol (wells 1-6) resisted lysis (seen as a loss of the central button). Row B: n-octanol (0.2 μmol/well). […] Row C: Lysophosphatidylcholine (1 μg/well).
Human red cells (freshly drawn or from an outdated blood bank source) were washed and suspended in physiological buffer. […] The cholesterol modified cells were placed in the wells of a microtiter plate and incubated for a few minutes at room temperature with octanol and lysophosphatidylcholine, which can be replaced with a battery of drugs (individually or in mixtures). Amphotericin B was then added and the plate incubated at room temperature for an hour. Cell lysis was scored by reading light scattering in a plate-reading photometer (FIG. 1) or, more simply, by letting the unlysed cells settle for an hour in conical wells and then assessing hemolysis by eye (FIG. 2).
Polyene antibiotics such as amphotericin B are known to promote the disruption of cholesterol containing membranes. However, this action depends critically on the cholesterol level in the membrane (see the control curves, O - - - O, in FIGS. 1 and 2). The critical cholesterol content for lysis is close to the physiological level in human fibroblast plasma membranes, for the same reason that ER cholesterol responds dramatically near the physiological content of the plasma membrane. […]

[1] = tested on: human fibroblast cell line; assay: Fibroblast plasma membrane cholesterol susceptibility to cholesterol oxidase; conditions: adding 0.1-1.0 mM octanol
Method: A human fibroblast cell line is grown in bulk culture and seeded into microtiter wells the day before experimentation. The fibroblast cells from the fibroblast cell line are rinsed and treated with octanol plus cholesterol oxidase as in Example 2. The increased level of plasma membrane cholesterol activity is detected in two ways. First, plasma membrane cholesterol activity is detected by susceptibility to cholesterol oxidase. […] Cell lysis caused by cholesterol oxidation can also be determined by measuring increased cell permeability using a plate fluorescence reader and the impermeable indicator of potassium ions, PBFI, or another indicator system.

human fibroblasts = assay: Effect of octanol on fibroblast cholesterol; conditions: 24 h in growth medium with octanol, FIG. 4
Method: FIG. 4 depicts the effect of octanol on fibroblast cholesterol. Replicate flasks of fibroblasts were incubated for 24 h in growth medium with octanol. The cells were then assayed for cholesterol and protein.
The cultured cells described in Example 3 will be plated in microtiter wells and incubated with test compounds at 37° C. for two days to allow a full metabolic response. The drug will then be washed away, amphotericin B added to the wells and cell lysis followed from the leakage of potassium ions or another indicator, as above. Resistance to amphotericin B lysis will indicate that the objective has been achieved: the reduction of plasma membrane cholesterol in response to the test compound. Other polyene antibiotics (e.g., nystatin and filipin) will be tested in place of amphotericin B in order to discern their effects. In contrast to the screens described in the previous examples, which are used to identify compounds that raise the activity of membrane cholesterol, the present assay will measure the long-term effect of modulating cholesterol levels. Agents that increase plasma membrane cholesterol activity, when used as drugs, will signal cells to reduce their cholesterol accretion homeostatically. […] This can be detected by their increased resistance to amphotericin B, which normally lyses these cells.

red blood cells = assay: Lysis of red blood cells by saponin; conditions: saponin 0-8 μg/well, 30 minutes, compared to solvent control, FIG. 6
Method: Red blood cells were pre-treated with either octanol, diglyceride, ceramide, or solvent before incubation with varying concentrations of saponin. The decrease in optical absorbance at 500 nm indicates increasing lysis.
Red cell membranes are treated with octanol, diglyceride, ceramide, or solvent before incubation with different concentrations of saponin (0-8 μg/well) for 30 minutes. Optical absorbance at OD500 is measured. Decreased optical absorbance indicates increasing lysis by saponin.

red cell membranes = assay: Oxidation of red cell membrane cholesterol by cholesterol oxidase; conditions: 0-12 μmolar analog pretreatment; cholesterol oxidase 1 h, FIG. 5
Method: The red cell membranes were pretreated with ceramide or diglycerides and then treated with cholesterol oxidase for a hour. An increase in oxidation following cholesterol oxidase treatment signifies an increase in active cellular cholesterol.
Red cell membrane lysis is measured using cholesterol oxidase as set forth in the examples above. Prior to lysis, red cell membranes are treated with either differing amounts of a ceramide analog (0-12 μmolar) or differing amounts of a diglyceride analog (0-12 μmolar). The increased level of plasma membrane cholesterol activity is detected by susceptibility to cholesterol oxidase and measured as a % of oxidation.

| Molecule | effect on amphotericin B lysis of red cells (activity of membrane cholesterol) (human red blood cells) | red blood cell lysis caused by amphotericin B (visual screen) (human red blood cells) | oxidation of fibroblast cholesterol by cholesterol oxidase [1] | fibroblast cell cholesterol after prolonged culture (human fibroblasts) | lysis of red blood cells by saponin (OD500) (red blood cells) | susceptibility of red cell cholesterol to oxidation by cholesterol oxidase (% of oxidation) (red cell membranes) |
| --- | --- | --- | --- | --- | --- | --- |
| CCCCCCCCO [octanol, n-octanol] | favors amphotericin B lysis | Even cholesterol depleted cells were lysed by amphotericin B | readily oxidized | resulted in cholesterol reduction | increase lysis of red blood cells at lower concentrations of saponin |  |
| ceramide |  |  |  |  | increase lysis of red blood cells at lower concentrations of saponin | increase the susceptibility of red cell cholesterol to oxidation |
| lysophosphatidylcholine | has the opposite effect | Even enriched cells resisted amphotericin B lysis |  |  |  |  |
